Measurements published in patent US8314255B2, “Use of phthalimide and/or sulphonamide derivatives in the treatment of diseases which require reducing the TNF- α levels and an exogenous source of nitric oxide, phthalimide derivatives, sulphonamide derivatives, and a method for obtaining a sulphonamide derivative” (priority 2007, dated 2012).

Key:
[1] = test system: Salmonella typhimurium TA100; experiment: AMES test, mutagenic evaluation in Salmonella typhimurium TA100 strain with/without metabolic activation (S9); format: cell-based
Protocol: The procedure was firstly developed by (MARON, D. M. and AMES, B. N. Mut. Res. v. 113, pp. 173-215, 1983)
For this assay, Salmonella typhimurium TA100 and TA102 strains from the mutagenicity laboratory of the “Faculdade de Ciências Farmacêuticas—UNESP Araraquara” were used. Such strains have the following characteristics: (AMES, 1983)
The positive controls are mutagenic compounds specific for each strain and test condition, with 25 μL/plate of sodium azide (1.25 μg/plate) and 100 μL of mitomycin (0.5 μg/plate) being the controls for TA100 and TA102, respectively, in the absence of metabolic activation. For assays with metabolic activation, the positive control for TA100 is 50 μL 2-antramine (1.25 μg/plate) and for TA102 it is 50 μL 2-aminofluorene (1.25 μg/plate).
The preincubation method was used.
In laminar flow, Salmonella typhimurium (TA100 and TA 102) strains were inoculated individually with a platinum loop, in the respective nutrient broths and maintained at 37° C., under constant stirring (160 rpm) during 14 hours, in order to achieve a density of 1 to 2×10^9 bacteria/mL.
Different concentrations of the compounds were added into 100 μL of 0.2M phosphate buffer pH 7.4 (or 500 μL of the mixture S9 in metabolic activation assays) and incubated for 20-30 minutes at 37° C. Solutions containing the compounds had DMSO as the solvent. Thereafter, 2 mL of top agar supplemented with traces of histidine and biotin was added, homogenized and plated in glycosylated minimum medium. After solidification of the top agar, the plates were incubated for 48 hours at a 37° C. Then, the counting of the number of revertant colonies per plate was performed. All tested concentrations, positive and negative controls were run in triplicate.
After 48 hours, the revertant colonies were counted manually, and the protoCOL Colony Counter Version 3.15.630 (1998-2001) SYNBIOSIS LTD system was used for the positive control.
The final data obtained from the assay was analyzed using the statistical software Salanal (Salmonella Assay Analysis) version 1.0 from the Research Triangle Institute, RTP, North Carolina, USA. Such software allows the dose-response effect to be evaluated by means of analysis of variance (ANOVA-test F) computations between the measurement of the number of revertants at the different tested concentrations (doses) and the negative control, followed by a linear regression. The software model chosen for analyzing the data was Bernstein's (BERNSTEIN, L. et al. Mutat. Res. v. 97, p. 267-281, 1982). The slope of the straight line from the linear portion of the dose-response curve is also provided by this software and corresponds to the number of revertants induced per measurement unit of the analyzed sample.
From the results, the mutagenicity ratio (MR) was computed for each analyzed dose from each compound. MR is given by the following equation:
MR=average number of revertants per test plate (spontaneous+induced revertants) […] average number of revertants per plate of the negative control (spontaneous revertants)
The spontaneous growing means that the number of revertants which developed on the plate, regardless of being induced or not, wherein values higher or equal to 2 are considered as a positive response (VALENT, G. V. et al. Env. Toxicol. Water Quality. v. 8, p. 371-381, 1993).
The mutagenicity test with metabolic activation system was performed with a microsomal fraction S9 (S9 mix) prepared from a liver homogenizate from Sprague Dawley rats, previously treated with Aroclor 1254, acquired in the freeze-dried form.
The procedure for this assay is the same, however, instead of the buffer, 500 μL of the S9 mixture should be added.
The S9 mixture has a viability of 4 hours from preparation when put on ice. The plates are then incubated for 48 hours at 37° C. After the required time has elapsed, the counting of the revertant colonies was carried out. All tested concentrations, positive and negative controls were run in triplicate.

[2] = test system: leukocyte infiltration, peritonitis induced by thioglycolate; experiment: Peritonitis assay induced by 3% thioglycolate; format: in vivo; conditions: 300 μMol/Kg orally, mouse, 3% thioglycolate i.p., 4 h
Protocol: In a second assay, the number of total leukocytes (10^6/mL) was evaluated in order to evaluate the ability to inhibit their infiltration in the inflammatory process.
The mice were treated with the substances being analyzed or carrier and after 1 h of oral administration, they were simultaneously subjected to the peritonitis assay, by administering intraperitoneally 1 ml of a 3% thioglycolate solution. 4 h after the administration of thioglycolate, the peritoneal cavity was washed with 3 ml of a HANKS solution (Balanced salt solution, free of Ca^2+ and Mg^2+). Next, the peritoneal wash was analyzed and the total counting of white blood cells was made in a Newbauer's chamber under an optical microscope with a 40× objective.

[3] = test system: abdominal writhing induced by acetic acid; experiment: Abdominal writhing assay induced by acetic acid; format: in vivo; conditions: oral, mice, acetic acid 0.1N i.p. after 1 hour, writhings counted during 20 minutes
Protocol: In order to evaluate the peripheral analgesic activity of the compounds, an abdominal writhing assay induced by acetic acid (Table 6) was carried out. In this assay, we could infer that compound ID has an important analgesic activity, inhibiting abdominal writhing by 66%. […] The analgesic activity may be related to the ability of these compounds to inhibit the cytokine TNFα, since it is known that this would be one of the mechanisms that explain the analgesia of molecules such as thalidomide.
The antinociceptive profile was evaluated through the abdominal writhing assay induced by acetic acid in mice. In this assay, Swiss mice from both genders were used, weighing from 21 to 28 grams, fasted for a time period of about 8 hours. The test substance was administered orally and had, as a carrier, 5% gum arabic. After 1 hour, the administration of acetic acid 0.1N (0.1 mL/10 g weight) was performed in the peritoneal cavity of the animals. Ten minutes after the injection of acetic acid, writhings were counted during 20 minutes.

`O=C1c2ccccc2C(=O)N1CO[N+](=O)[O-]` [Compound IA, (1,3-dioxo-1,3-dihydro-2H-isoindol-2-yl)methyl nitrate] was tested, and the “mutagenicity ratio (MR)” value ([1]; TA 100, +S9, 7.25 nmol/plate) was 1.19, the “number of revertants per plate” value ([1]; TA 100, +S9, 7.25 nmol/plate) was 154 ± 14.2 revertants/plate and the “mutagenicity ratio (MR)” value ([1]; TA 100, +S9, 14.5 nmol/plate) was 1.19. The “number of revertants per plate” value ([1]; TA 100, +S9, 14.5 nmol/plate) was 155 ± 5.9 revertants/plate, the “mutagenicity ratio (MR)” value ([1]; TA 100, +S9, 29 nmol/plate) was 1.08 and the “number of revertants per plate” value ([1]; TA 100, +S9, 29 nmol/plate) was 140.3 ± 2 revertants/plate. The “mutagenicity ratio (MR)” value ([1]; TA 100, +S9, 56 nmol/plate) was 0.97, the “number of revertants per plate” value ([1]; TA 100, +S9, 56 nmol/plate) was 126.3 ± 8.1 revertants/plate and the “mutagenicity ratio (MR)” value ([1]; TA 100, +S9, 112 nmol/plate) was 1.03. For the same compound, the “number of revertants per plate” value ([1]; TA 100, +S9, 112 nmol/plate) was 133.3 ± 11 revertants/plate, the “mutagenicity ratio (MR)” value ([1]; TA 100, −S9, 7.25 nmol/plate) was 1.03 and the “number of revertants per plate” value ([1]; TA 100, −S9, 7.25 nmol/plate) was 140.5 ± 17 revertants/plate. The “mutagenicity ratio (MR)” value ([1]; TA 100, −S9, 14.5 nmol/plate) was 1.18, the “number of revertants per plate” value ([1]; TA 100, −S9, 14.5 nmol/plate) was 161.7 ± 11 revertants/plate and the “mutagenicity ratio (MR)” value ([1]; TA 100, −S9, 29 nmol/plate) was 0.9. For the same compound, the “number of revertants per plate” value ([1]; TA 100, −S9, 29 nmol/plate) was 122.7 ± 3.06 revertants/plate, the “mutagenicity ratio (MR)” value ([1]; TA 100, −S9, 56 nmol/plate) was 1.71 and the “number of revertants per plate” value ([1]; TA 100, −S9, 56 nmol/plate) was 234 ± 39.5 revertants/plate. For the same compound, the “mutagenicity ratio (MR)” value ([1]; TA 100, −S9, 112 nmol/plate) was 2.45, the “number of revertants per plate” value ([1]; TA 100, −S9, 112 nmol/plate) was 335 ± 15.7 revertants/plate and the “Cell Number avg (×106), total leukocytes” value [2] was 4.9 ×106. For the same compound, the “Inhibition % (leukocyte infiltrate)” value [2] was 12.5% and the “Average (abdominal writhings)” value [3] was 28.6.

For `O=C1c2ccccc2C(=O)N1c1ccc(CCO[N+](=O)[O-])cc1` [Compound IE, 2-[4-(1,3-dioxo-1,3-dihydro-2H-isoindol-2-yl)phenyl]ethyl nitrate], the “mutagenicity ratio (MR)” value ([1]; TA 100, +S9, 0.12 μmol/plate) was 2.8, the “number of revertants per plate” value ([1]; TA 100, +S9, 0.12 μmol/plate) was 363 ± 25.2 revertants/plate and the “mutagenicity ratio (MR)” value ([1]; TA 100, +S9, 0.25 μmol/plate) was 3.7. For the same compound, the “number of revertants per plate” value ([1]; TA 100, +S9, 0.25 μmol/plate) was 478.7 ± 4.22 revertants/plate, the “mutagenicity ratio (MR)” value ([1]; TA 100, +S9, 0.5 μmol/plate) was 4.86 and the “number of revertants per plate” value ([1]; TA 100, +S9, 0.5 μmol/plate) was 628 ± 40.8 revertants/plate. For the same compound, the “mutagenicity ratio (MR)” value ([1]; TA 100, +S9, 1 μmol/plate) was 5.72, the “number of revertants per plate” value ([1]; TA 100, +S9, 1 μmol/plate) was 739 ± 25.4 revertants/plate and the “mutagenicity ratio (MR)” value ([1]; TA 100, +S9, 2 μmol/plate) was 5.79. The “number of revertants per plate” value ([1]; TA 100, +S9, 2 μmol/plate) was 750 ± 13.6 revertants/plate, the “mutagenicity ratio (MR)” value ([1]; TA 100, −S9, 0.12 μmol/plate) was 1.04 and the “number of revertants per plate” value ([1]; TA 100, −S9, 0.12 μmol/plate) was 143.3 ± 5 revertants/plate. For the same compound, the “mutagenicity ratio (MR)” value ([1]; TA 100, −S9, 0.25 μmol/plate) was 0.99, the “number of revertants per plate” value ([1]; TA 100, −S9, 0.25 μmol/plate) was 135.3 ± 12 revertants/plate and the “mutagenicity ratio (MR)” value ([1]; TA 100, −S9, 0.5 μmol/plate) was 0.99. For the same compound, the “number of revertants per plate” value ([1]; TA 100, −S9, 0.5 μmol/plate) was 136.3 ± 13 revertants/plate, the “mutagenicity ratio (MR)” value ([1]; TA 100, −S9, 1 μmol/plate) was 0.89 and the “number of revertants per plate” value ([1]; TA 100, −S9, 1 μmol/plate) was 121.5 ± 14 revertants/plate. The “mutagenicity ratio (MR)” value ([1]; TA 100, −S9, 2 μmol/plate) was 1.30, the “number of revertants per plate” value ([1]; TA 100, −S9, 2 μmol/plate) was 177 ± 23.6 revertants/plate and the “Cell Number avg (×106), total leukocytes” value [2] was 4.13 ×106. The “Inhibition % (leukocyte infiltrate)” value [2] was 26.25%.
